Reference: US20230219963A1, “PYRROLO[2,3-D]PYRIMIDINE DERIVATIVES” (Pfizer Inc., priority 2020, published 2023)

biological target: T1, JAK3 (Homo sapiens, UniProt P52333); experiment: JAK Caliper Enzyme Assay at 1 mM ATP (JAK3); assay type: biochemical
T1 sequence (P52333 1-1124): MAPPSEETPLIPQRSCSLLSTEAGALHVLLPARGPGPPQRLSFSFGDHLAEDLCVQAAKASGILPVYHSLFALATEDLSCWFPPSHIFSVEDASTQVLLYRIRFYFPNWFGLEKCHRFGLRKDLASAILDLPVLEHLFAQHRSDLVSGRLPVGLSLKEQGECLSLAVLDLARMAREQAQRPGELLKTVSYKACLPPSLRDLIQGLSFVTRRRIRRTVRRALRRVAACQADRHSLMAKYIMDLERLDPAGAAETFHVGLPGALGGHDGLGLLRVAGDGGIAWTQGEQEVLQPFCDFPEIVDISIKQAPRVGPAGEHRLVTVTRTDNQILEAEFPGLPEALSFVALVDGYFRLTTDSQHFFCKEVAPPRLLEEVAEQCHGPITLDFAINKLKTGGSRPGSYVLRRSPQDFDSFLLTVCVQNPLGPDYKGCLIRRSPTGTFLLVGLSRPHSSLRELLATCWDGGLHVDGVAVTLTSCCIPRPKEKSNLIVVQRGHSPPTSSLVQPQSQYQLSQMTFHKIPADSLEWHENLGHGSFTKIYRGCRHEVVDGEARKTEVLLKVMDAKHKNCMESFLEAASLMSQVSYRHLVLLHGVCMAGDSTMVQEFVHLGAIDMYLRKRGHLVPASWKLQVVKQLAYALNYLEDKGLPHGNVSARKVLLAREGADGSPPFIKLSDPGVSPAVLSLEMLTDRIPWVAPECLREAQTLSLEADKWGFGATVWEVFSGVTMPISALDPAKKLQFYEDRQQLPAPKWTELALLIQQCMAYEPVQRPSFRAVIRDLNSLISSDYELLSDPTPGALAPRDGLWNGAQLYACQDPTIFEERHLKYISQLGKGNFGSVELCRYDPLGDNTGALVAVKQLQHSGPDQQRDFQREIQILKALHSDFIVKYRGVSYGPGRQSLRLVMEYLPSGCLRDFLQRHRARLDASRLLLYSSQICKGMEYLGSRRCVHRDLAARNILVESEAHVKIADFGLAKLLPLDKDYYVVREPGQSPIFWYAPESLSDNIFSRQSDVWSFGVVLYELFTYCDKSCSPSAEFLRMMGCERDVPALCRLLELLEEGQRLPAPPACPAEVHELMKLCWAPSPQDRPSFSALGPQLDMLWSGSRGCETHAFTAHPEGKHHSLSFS
Experimental: JAK Caliper Enzyme Assay at 1 mM ATP
Test article was solubilized in dimethyl sulfoxide (DMSO) to a stock concentration of 30 mM. An 11-point half log dilution series was created in DMSO with a top concentration of 600 μM. […] The compound plates were diluted 1 to 60 resulting in a top final assay compound concentration of 10 μM and a 2% DMSO concentration. Test article and assay controls were added to a 384-well plate. Reaction mixtures contained 20 mM HEPES, pH 7.4, 10 mM magnesium chloride, 0.01% bovine serum albumin (BSA), 0.0005% Tween 20, 1 mM ATP and 1 μM peptide substrate. […] The assays were initiated by the addition of 20 nM JAK1, 1 nM JAK2, 1 nM JAK3 or 1 nM TYK2 enzyme and were incubated at room temperature for three hours for JAK1, 60 minutes for JAK2, 75 minutes for JAK3 or 135 minutes for TYK2. Enzyme concentrations and incubation times were optimized for each new enzyme preps and were modified slightly over time to ensure 20%-30% phosphorylation. The assays were stopped with a final concentration of 10 mM EDTA, 0.1% Coating Reagent and 100 mM HEPES, pH=7.4. The assay plates were placed on a Caliper Life Science Lab Chip 3000 (LC3000) instrument, and each well was sampled using appropriate separation conditions to measure the unphosphorylated and phosphorylated peptide.

IC50 [µM] | SMILES
> 10 | C[C@H](O)CS(=O)(=O)N[C@H]1C[C@@H](N(C)c2ncnc3[nH]ccc23)C1 (single isomer, unassigned) [IA (M2)]
> 10 | CN(c1ncnc2[nH]ccc12)[C@H]1C[C@@H](NS(=O)(=O)CCCO)C1 [IB (M1), 3-Hydroxy-N-(cis-3-(methyl(7H-pyrrolo[2,3-d]pyrimidin-4-yl)amino)cyclobutyl)propane-1-sulfonamide]
> 10 | C[C@@H](O)CS(=O)(=O)N[C@H]1C[C@@H](N(C)c2ncnc3[nH]ccc23)C1 (single isomer, unassigned) [IC (M3)]
